# From the Deep4Chem optical property database
# Assay: solvent given as SMILES
compound,measurement,setting,value
CC(C)[Si](C#CC1=CC2=c3cc(C#C[Si](C(C)C)(C(C)C)C(C)C)c4nc(C(F)(F)C(F)(F)C(F)(F)F)nc5c(C#C[Si](C(C)C)(C(C)C)C(C)C)cc(c3c54)C3=CC(C#C[Si](C(C)C)(C(C)C)C(C)C)=C4N=C(C(F)(F)C(F)(F)C(F)(F)F)N=C1C4C32)(C(C)C)C(C)C (stereo not drawn),absorption maximum,in C1CCOC1,516 nm
F[B-]1(F)OC(c2ccc(C(F)(F)F)cc2)=Cc2c3ccccc3c3ccccc3[n+]21,absorption maximum,in ClC(Cl)Cl,430 nm
N=c1oc2cccc3c4c(-c5ccccc5)oc5cccc(c(c1-c1ccccc1)c23)c54,absorption maximum,in ClC(Cl)Cl,397 nm
CCOC(=O)c1sc2nc(-c3ccccc3)c(C)c(C#N)c2c1N,absorption maximum,in C1COCCO1,420 nm
same,absorption maximum,in CC#N,412 nm
same,absorption maximum,in CCO,423 nm
same,absorption maximum,in CCOC(C)=O,419 nm
same,absorption maximum,in ClC(Cl)Cl,416 nm
same,absorption maximum,in c1ccccc1,418 nm
CCCCCCn1c(=O)c2c3[nH]c4ccccc4oc3c3c(=O)n(CCCCCC)c(=O)c3c2c1=O,absorption maximum,in ClCCl,454 nm
Cc1ccc(-n2c(-c3cccc4cc[nH]c34)nc3c4ccccc4c4ccccc4c32)cc1,absorption maximum,in Cc1ccccc1,354 nm
CCCc1ccc(C#Cc2cc(C#Cc3ccc(CCC)cc3)c3ccc4c(C#Cc5ccc(CCC)cc5)cc(C#Cc5ccc(CCC)cc5)c5ccc2c3c54)cc1,absorption maximum,in ClCCl,470 nm
CC(C)(C)OC(=O)NCCCC(=O)OCc1ccc2c3cccc4cccc(c5cccc1c52)c43,absorption maximum,in CCO,439 nm
COC(=O)c1ccc(C#Cc2ccc(N(C)C)cc2)cc1,absorption maximum,in C1CCCCC1,359.51 nm
same,absorption maximum,in C1CCOC1,361.89 nm
same,absorption maximum,in C1COCCO1,360.5 nm
same,absorption maximum,in CC1CCCO1,354.5 nm
same,absorption maximum,in CC#N,360.5 nm
same,absorption maximum,in CC(C)=O,362 nm
same,absorption maximum,in CC(C)CC(C)(C)C,364.5 nm
same,absorption maximum,in CC(C)O,360.5 nm
same,absorption maximum,in CCCCCCCCCCCCCCCC,365.5 nm
same,absorption maximum,in CCCCCCCCCCCCCCCCCl,370.49 nm
same,absorption maximum,in CCOC(C)=O,357 nm
same,absorption maximum,in CCOCC,354.5 nm
same,absorption maximum,in CN(C)C=O,367.5 nm
same,absorption maximum,in CO,359 nm
same,absorption maximum,in CS(C)=O,370 nm
same,absorption maximum,in Cc1ccccc1,369.49 nm
CON(OC)c1cc2c3cc(-c4c(C)cc(C)cc4C)cc4c5cc(-c6c(C)cc(C)cc6C)cc6c7cc(B(c8c(C)cc(C)cc8C)c8c(C)cc(C)cc8C)cc8c9cc(-c%10c(C)cc(C)cc%10C)cc%10c%11cc(-c%12c(C)cc(C)cc%12C)cc%12c(c1)c2c1c(c43)c(c65)c(c78)c(c9%10)c1c%11%12,absorption maximum,in C1CCOC1,452 nm
same,absorption maximum,in CC(C)=O,445 nm
same,absorption maximum,in CCCCCC,453 nm
same,absorption maximum,in Cc1ccccc1,461 nm
same,absorption maximum,in ClC(Cl)Cl,449 nm
same,absorption maximum,in ClCCl,450 nm
CN(C)c1ccc(C#Cc2ccc(C=O)cc2)cc1,absorption maximum,in C1CCCCC1,381.5 nm
same,absorption maximum,in C1CCOC1,379.51 nm
same,absorption maximum,in C1COCCO1,375.01 nm
same,absorption maximum,in CC1CCCO1,382 nm
same,absorption maximum,in CC#N,375.01 nm
same,absorption maximum,in CC(C)=O,388 nm
same,absorption maximum,in CC(C)CC(C)(C)C,383.49 nm
same,absorption maximum,in CC(C)O,380.5 nm
same,absorption maximum,in CCCCCCCCCCCCCCCC,383 nm
same,absorption maximum,in CCCCCCCCCCCCCCCCCl,390 nm
same,absorption maximum,in CCOC(C)=O,375.01 nm
same,absorption maximum,in CCOCC,372.49 nm
same,absorption maximum,in CN(C)C=O,379.51 nm
same,absorption maximum,in CO,380.5 nm
same,absorption maximum,in CS(C)=O,387 nm
same,absorption maximum,in Cc1ccccc1,381.5 nm
CCCCN(CCCC)c1ccc(C#Cc2cc(C#Cc3ccc(N(CCCC)CCCC)cc3)c(C#Cc3ccc(C#N)cc3)cc2C#Cc2ccc(C#N)cc2)cc1,absorption maximum,in ClCCl,435 nm
CCCCCCCCN1C(=O)c2ccc3c4c(-c5ccc6c7ccccc7n(-c7ccccc7)c6c5)cc5c6c(cc(-c7ccc8c9ccccc9n(-c9ccccc9)c8c7)c(c7ccc(c2c37)C1=O)c64)C(=O)N(CCCCCCCC)C5=O,absorption maximum,in ClC(Cl)Cl,567 nm
C[Si](C)(C)c1ccc(C#N)c2ccccc12,absorption maximum,in C1CCCCC1,315 nm
c1cc2ccc1CCCc1ccc(c3nsnc13)CCC2,absorption maximum,in C1CCCCC1,378 nm
same,absorption maximum,in CC#N,384 nm
same,absorption maximum,in ClC(Cl)Cl,384 nm
Cc1nc(-c2cc(C(F)(F)F)ccc2O)n2c1CCCC2,absorption maximum,in ClCCl,316 nm
CCCC1(CCC)c2cc(-c3ccc4c(c3)C(CCC)(CCC)c3cc(C(C)(C)CC)ccc3-4)ccc2-c2ccc(-c3ccc4c(c3)C(CCC)(CCC)c3cc(C(C)(C)CC)ccc3-4)cc21,absorption maximum,in C1CCCCC1,351 nm
COc1ccc(-c2nc3c(ccc4ccccc43)oc2=O)cc1,absorption maximum,in c1ccccc1,410 nm
COc1cc2c(cc1OC)C1=C[C@H](c3ccc(C)cc3)C3(C(C#N)=C(C#N)N1CC2)c1ccccc1-c1ccccc13,absorption maximum,in ClCCl,317 nm
CC1=C(c2ccccc2)C(C)=[N+]2C1=C(c1c(-c3ccccn3)nc3ccccn13)c1c(C)c(-c3ccccc3)c(C)n1[B-]2(F)F,absorption maximum,in ClCCl,548 nm
COc1cc(OC)c2c(c1)C(=O)c1cc(OC)cc(OC)c1-2,absorption maximum,in C1CCCCC1,489 nm
same,absorption maximum,in CC#N,504 nm
same,absorption maximum,in CCO,506 nm
CCCCCCCCCCCCn1cccc1/C=C/c1ccc(/C=C/c2cccn2CCCCCCCCCCCC)cc1,absorption maximum,in Cc1ccccc1,398 nm
CCCCN(CCCC)c1ccc(C#Cc2cc(C#Cc3ccc([N+](=O)[O-])cc3)c(C#Cc3ccc(N(CCCC)CCCC)cc3)cc2C#Cc2ccc([N+](=O)[O-])cc2)cc1,absorption maximum,in ClCCl,448 nm
CN(C)c1ccc(N2c3c(sc4ccccc34)Sc3sc4ccccc4c32)cc1,absorption maximum,in ClCCl,309 nm
